SMILES strings stand for the structures. Read-outs that look alike come from different tables or passages of the source.

For this assay, the system named is MCF-7 cells (PI3Kα-E545K mutant). As to the kind of experiment: pAKT (T308) ELISA assay, MCF-7. To be noted: Homo sapiens, MCF7. It counts as cell-based. Here is the method: MCF-7 cells (ATCC) cells were seeded at 24000 cells per well in 96-well plates (Corning, 3904) in DMEM (Cellgro) containing 10% FBS (Cellgro), 1% NEAA (Cellgro) and 1% penicillin-streptomycin (Cellgro). Cells were incubated at 37° C., 5% CO2 for 48 h, and the growth medium was replaced with serum-free DMEM or in medium containing 0.4% BSA. Serial dilutions of the test compound in 0.3% DMSO (vehicle) were added to the cells and incubated for 3 h. At the end of the incubation period, cells were stimulated for 10 minutes by the addition of L-IGF (Sigma, I-1271) at a final concentration of 100 ng/ml. Afterwards, media was discarded from cell plates and 110 μl/well of cold lysis buffer (see table below) were added. Cell plates were incubated on ice and then put on shaker in 4° C. cold room for 1 h. Two capture plates (Thermo Scientific, Reacti-bind plate, 15042) were prepared for each cell plate by pre-coating with capture Akt antibody from the two sandwich ELISA antibody pairs used (Cell Signaling Technology 7142 and 7144). The Akt capture antibodies were diluted 1:100 in PBS and […] of diluted capture antibody was added per well. […] After 1 minute incubation, chemiluminescence was read on a Wallac Victor2 1420 multilabel counter. IC50 values were determined based on the ratio of pAkt(T308) to total Akt1 signal for compound treated wells, normalized to the DMSO-treated control wells. […]

As to `Cc1cc(C(C)Nc2ccccc2)c2nc(N3CCOCC3)cc(=O)n2c1` (centres unmarked) [TGX-221, 7-methyl-2-(4-morpholinyl)-9-[1-(phenylamino)ethyl]-4H-pyrido[1,2-a]pyrimidin-4-one], the 50% inhibitory concentration (IC50) reads like this: (IGF1 stimulation, Table 5, read-out: pAKT (T308) IC50 MCF-7 PI3Kα E545K IGF1) 1.76 µM; (PI3KαE545K, Table 6, read-out: Cellular pAKT (T308) IC50 MCF-7) over 30 µM.

(Values after patent US20140066431A1, “Benzoxazepines as Inhibitors of PI3K/mTOR and Methods of Their Use and Manufacture” (Exelixis, Inc., priority 2010, published 2014).)
